The test system of this assay is FadD32 mutant strains of Mtb (E120 and F291). The assay is classed as cell-based, Mycobacterium tuberculosis.
As to `Cc1cc2nccc(-c3ccccc3)c2c(C)c1-c1ccc(CN2CCOCC2)cc1` [Compound 8], the “activity versus the E120 and F291 mutants compared to wild-type” value is reported as “markedly less activity”. For the molecule `Cc1cc2nccc(-c3ccnn3C)c2c(C)c1-c1ccc(CN2CCOCC2)cc1` [Compound 15m], the “FadD32 mutant MIC90” value amounted to 100 µM; the “activity versus the E120 and F291 mutants compared to wild-type” value is “markedly less activity”. Consider `Cc1cc2nccc(-c3cncnc3)c2c(C)c1-c1ccc(CN2CCOCC2)cc1` [Compound 15n], for which the “FadD32 mutant MIC90” value stood at 100 µM; the “activity versus the E120 and F291 mutants compared to wild-type” value is on record as “markedly less activity”. In the case of `CNC(=O)c1cc(-c2ccccc2Cl)c2c(C)c(-c3ccncc3)c(C)cc2n1` [Compound 21b], the “activity versus the E120 and F291 mutants compared to wild-type” value was “markedly less activity”.

Values taken from publication PMC6233306 (Bioorganic & medicinal chemistry letters, 2018).
